Measured values: article PMC3582601, “New analogues of 13-hydroxyocatdecadienoic acid and 12-hydroxyeicosatetraenoic acid block human blood platelet aggregation and cyclooxygenase-1 activity” (Chemistry Central Journal, 2012)
Where two headings read alike, the source gives them in different places.

How the values were obtained:
[1] = system: human washed platelets; experiment: Platelet aggregation triggered by arachidonic acid (light transmittance aggregometry); assay type: cell-based; details: for Effect on arachidonic acid-dependent platelet aggregation: 25 μM arachidonic acid, human washed platelets; for Plt aggregation IC50 ± S.E.M / IC50: human washed platelets 0.4 x 10^9 plt/ml, inhibitor 1 min before 25 μM arachidonic acid, n = 3–4; for IC50: read-out: Plt aggregation IC50 ± S.E.M
Experimental: Figure 2 Aggregation curves of inhibitory compounds. Platelet aggregation was performed on human washed platelets. Platelets (0.4 × 10^9 plt/ml) were treated with increasing concentrations of each inhibitor for 1 min prior to the addition of 25 μM of arachidonic acid for 2 min. Results represent aggregation curves of compound 3 (A), compound 4 (B), compound 7 (C), compound 8 (D), and compound 9 (E). Aggregation curves are representative of at least 4 experiments with similar results.
Slopes of aggregation curves were analyzed by Grafit 7 software and inhibition curves were obtained. (A) represents compounds of type I and (B) compounds of type II. […] Results correspond to mean ± S.E.M. for 3–5 experiments.
(§1) Venous blood was obtained from healthy volunteers who had not ingested any drugs for the last 14 days and after informed consent in accordance with the Institutional Review Board (IRB) of the American University of Beirut (Approval # BioCh.AH.03). Washed platelets were prepared as described previously. Briefly, 20 ml of peripheral blood was withdrawn on ACD-C (1 volume for 9 volumes of blood) and centrifuged at 120 g for 15 min at room temperature (RT) to obtain platelet-rich plasma. Platelet-rich plasma was further centrifuged at 1,200 g for 15 min at RT, and the platelet pellet obtained was washed by Tyrode buffer solution containing 0.1 μM of PGE1 and further centrifuged at 1,200 g for 15 min at RT. […] Aggregation of washed-platelets was determined using light transmittance aggregometry (Chrono-Log Corp., Havertown, PA). 400 μl of platelets (0.4 x 10^9plt/ml) were preincubated for 1 min at 37 °C in the absence or presence of inhibitors prior to the addition of 25 μM of arachidonic acid, which was controlled as optimal in our conditions. In some experiments, platelets were triggered with 1 μM U46619, a TX receptor agonist, or 0.5 μg/ml collagen, a concentration we checked in our conditions to induce COX-dependent platelet aggregation. TXB2 was measured in the supernatant by enzyme immunoassay.
(§2) Aggregation data were expressed after defining the slope for each aggregation curve, which better reflects the rate of the platelet reaction, using the Born’s method. Curve fitting and calculation of the IC50 values were done using Grafit 7 software (Erithacus software, Staines, UK). Results of TXB2 and PGE2 measurement were expressed as the mean ± S.E.M. for at least 3 different experiments and statistical analysis was performed using Sigma Plot (Systat Software Inc., San Jose, CA). Autoradiograms obtained from western blot analyses were scanned using Epson 1680 pro scanner and densitometric analysis was performed using Scion Image (Scion Corporation, MD).

[2] = system: COS-7 cells overexpressing COX-1; experiment: WST-1 viability assay; details: 25 and 50 μM
Experimental: We used COS-7 cells overexpressing human COX-1. […] In these cells which express only COX-1, arachidonic acid is metabolized into prostaglandin (PG) H2 which will consequently breakdown into PGE2. Measurement of PGE2 under these conditions will reflect COX-1 activity [18, 19].
COS-7 cells were grown using DMEM-medium containing 10% fetal bovine serum (FBS). Cells were transfected in suspension with pcDNA3-COX-1 plasmid using FuGENE® 6 transfection reagent at a ratio of 3:1 (FuGENE: DNA, v/w) and then cultured in DMEM media + 10% FBS in 12-well plates. […] PGE2 was measured in the supernatants by enzyme immunoassay [23]. Cells were washed twice with PBS and lysed in lysis buffer. […] Briefly, SDS polyacrylamide electrophoresis was performed using 8% gels followed by protein transfer using a semi-dry transfer machine.

[3] = target: T1, human COX-1 (Homo sapiens, UniProt P23219); experiment: COX-1 activity (PGE2 by enzyme immunoassay) in COS-7 cells overexpressing human COX-1; assay type: cell-based; details: COS-7 cells overexpressing human COX-1, 30 min compound then 25 μM arachidonic acid 30 min, n = 3-4, read-out: COX-1 activity IC50 ± S.E.M
T1 construct: expressed in transfected cells; host or cells: COS-7
T1 sequence (P23219 24-599): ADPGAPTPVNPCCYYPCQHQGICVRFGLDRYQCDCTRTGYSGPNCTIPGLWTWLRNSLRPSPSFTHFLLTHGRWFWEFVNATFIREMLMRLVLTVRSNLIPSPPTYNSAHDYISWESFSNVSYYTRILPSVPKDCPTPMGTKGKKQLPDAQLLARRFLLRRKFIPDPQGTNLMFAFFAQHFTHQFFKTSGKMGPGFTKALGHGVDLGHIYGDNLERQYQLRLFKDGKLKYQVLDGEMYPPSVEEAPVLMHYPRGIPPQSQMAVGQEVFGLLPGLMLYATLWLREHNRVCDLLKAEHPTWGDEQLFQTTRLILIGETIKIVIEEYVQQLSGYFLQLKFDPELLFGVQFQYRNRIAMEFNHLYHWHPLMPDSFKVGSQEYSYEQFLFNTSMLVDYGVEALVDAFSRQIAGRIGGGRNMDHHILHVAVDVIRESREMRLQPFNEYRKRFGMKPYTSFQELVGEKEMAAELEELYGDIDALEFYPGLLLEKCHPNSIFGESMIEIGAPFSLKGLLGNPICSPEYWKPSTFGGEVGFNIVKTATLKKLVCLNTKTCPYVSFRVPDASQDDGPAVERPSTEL
Experimental: Figure 4 Inhibition of COX-1 activity. Human COX-1 was overexpressed in COS-7 cells. […] PGE2 was measured in the supernatant by enzyme immunoassay. Results were expressed as percentage of PGE2 in arachidonic acid treated samples which was attributed a value of 100. Fitting of curves was done using Grafit software. Results correspond to mean ± S.E.M. for 3 experiments. […] Insert represents Western blot analysis of COX-1 using selective monoclonal COX-1 in untransfected and pcDNA3-COX-1transfected cells.
as §2

[4] = system: human washed platelets; experiment: Platelet aggregation induced by collagen; assay type: cell-based; details: 0.5 μg/ml collagen
Experimental: Figure 6 Effect of inhibitory compounds on platelet aggregation and TXB2 level formation in response to collagen. […] TXB2 levels were measured in the supernatant of platelets (C). Results represent 3 experiments.
as §1

[5] = target: T2, thromboxane receptor (Homo sapiens, UniProt P21731); experiment: Platelet aggregation in response to TX receptor agonist U46619; assay type: cell-based; details: 50 μM compound, 1 μM U46619
T2 construct: Venous blood was obtained from healthy volunteers; endogenous in cells; host or cells: washed human blood platelets
T2 sequence (P21731 1-343): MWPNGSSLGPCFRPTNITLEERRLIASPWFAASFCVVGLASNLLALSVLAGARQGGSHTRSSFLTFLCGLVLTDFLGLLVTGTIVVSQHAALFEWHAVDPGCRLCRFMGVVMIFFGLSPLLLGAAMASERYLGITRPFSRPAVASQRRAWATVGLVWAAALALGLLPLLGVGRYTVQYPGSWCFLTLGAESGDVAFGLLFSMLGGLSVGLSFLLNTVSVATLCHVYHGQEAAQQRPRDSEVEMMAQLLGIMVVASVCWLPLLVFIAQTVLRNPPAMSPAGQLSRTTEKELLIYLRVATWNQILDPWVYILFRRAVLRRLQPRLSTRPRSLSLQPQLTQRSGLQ
Experimental: Figure 7 Effect of inhibitory compounds on platelet aggregation in response to TX receptor agonist, U46619. Platelets (0.4x 10^9 plt/ml) were pretreated with 50 μM of inhibitory compounds 3, 4, 7, 8 and 9 then triggered with 1 μM U46619, a thromboxane receptor agonist. Aggregation curves of compounds of type I (A) and type II (B) are representative of 2 experiments with similar results.
as §1

| SMILES | Effect on arachidonic acid-dependent platelet aggregation [1] | Plt aggregation IC50 ± S.E.M [1] | Toxicity in WST-1 viability assay [2] | IC50 [3] [µM] | IC50 [1] [µM] | Platelet aggregation induced by collagen ([4]; 50 μM compound) | Thromboxane receptor-dependent platelet aggregation [5] | IC50 ([1]; Platelet) [µM] | Platelet aggregation induced by collagen ([4]; 25 μM ibuprofen) |
| --- | --- | --- | --- | --- | --- | --- | --- | --- | --- |
| CCCCCC(O)c1cccc(C=NO)c1 (stereo not drawn) [Compound 1] | no inhibitory effect | No inhibition | – | – | – | – | – | – | – |
| CCCCCC(O)c1cccc(C(=O)O)c1 (stereo not drawn) [Compound 2] | no inhibitory effect | No inhibition | – | – | – | – | – | – | – |
| CCCCCC(O)c1ccc(O)c(OC)c1 (stereo not drawn) [Compound 3] | – | – | absence of toxicity | 2.2 ± 0.7 | 7.5 ± 0.8 | blocked platelet aggregation induced by collagen | None of the compounds 3, 4, 7, 8 and 9 were able to act | – | – |
| CCCCC(O)c1ccc(O)c(OC)c1 (stereo not drawn) [Compound 4] | – | – | absence of toxicity | 12.1 ± 2.3 | 14.2 ± 5.7 | blocked platelet aggregation induced by collagen | None of the compounds 3, 4, 7, 8 and 9 were able to act | – | – |
| CCCCCCCCCC(O)c1ccc(O)c(OC)c1 (stereo not drawn) [Compound 5] | loss of the inhibitory activity | – | – | – | 97.6 ± 83.5 | – | – | – | – |
| COc1cc(C(O)C2CCCC2)ccc1O (stereo not drawn) [Compound 6] | loss of the inhibitory activity | – | – | – | 41.2 ± 0.7 | – | – | – | – |
| COc1cc(C(O)c2ccccc2)ccc1O (stereo not drawn) [Compound 7] | significant inhibitory activities | – | absence of toxicity | 1.3 ± 0.5 | 8.5 ± 1.2 | blocked platelet aggregation induced by collagen | None of the compounds 3, 4, 7, 8 and 9 were able to act | – | – |
| COc1cc(C(O)c2ccc(F)cc2)ccc1O (stereo not drawn) [Compound 8] | significant inhibitory activities | – | absence of toxicity | 6.5 ± 0.2 | 13.4 ± 0.5 | blocked platelet aggregation induced by collagen | None of the compounds 3, 4, 7, 8 and 9 were able to act | – | – |
| COc1cc(C(C)(O)c2ccccc2)ccc1O (stereo not drawn) [Compound 9] | – | – | absence of toxicity | 8.1 ± 1.7 | 11.3 ± 4.8 | blocked platelet aggregation induced by collagen | None of the compounds 3, 4, 7, 8 and 9 were able to act | – | – |
| COc1ccc(C(O)c2ccccc2)cc1OC (stereo not drawn) [Compound 10] | completely abolished the inhibitory activity | No inhibition | – | – | – | – | – | – | – |
| CC(C)Cc1ccc(C(C)C(=O)O)cc1 (stereo not drawn) [Ibuprofen, reference compound] | – | – | – | – | – | – | – | 0.5 ± 0.11 | strongly inhibited |
